Reference: patent publication US20220306617A1, “SUBSTITUTED 1,3-PHENYL HETEROARYL DERIVATIVES AND THEIR USE IN THE TREATMENT OF DISEASE” (NOVARTIS AG, priority 2019, published 2022)
“And” between values parts separate entries of the source, which are not always exact repeats. Equal values may be shown once. Where a name gives a salt, the structure may show the parent alone.

Target: T1, abc isoform of human TMEM16A channel expressed in CHO cells (Homo sapiens, UniProt Q5XXA6, DEL476-501)
T1 construct: expressed in transfected cells; host or cells: CHO cells, doxycycline-inducible expression under Blasticidin/Zeocin selection
T1 sequence (Q5XXA6 with tags, fused parts or gaps isoform Q5XXA6-5 DEL539-564): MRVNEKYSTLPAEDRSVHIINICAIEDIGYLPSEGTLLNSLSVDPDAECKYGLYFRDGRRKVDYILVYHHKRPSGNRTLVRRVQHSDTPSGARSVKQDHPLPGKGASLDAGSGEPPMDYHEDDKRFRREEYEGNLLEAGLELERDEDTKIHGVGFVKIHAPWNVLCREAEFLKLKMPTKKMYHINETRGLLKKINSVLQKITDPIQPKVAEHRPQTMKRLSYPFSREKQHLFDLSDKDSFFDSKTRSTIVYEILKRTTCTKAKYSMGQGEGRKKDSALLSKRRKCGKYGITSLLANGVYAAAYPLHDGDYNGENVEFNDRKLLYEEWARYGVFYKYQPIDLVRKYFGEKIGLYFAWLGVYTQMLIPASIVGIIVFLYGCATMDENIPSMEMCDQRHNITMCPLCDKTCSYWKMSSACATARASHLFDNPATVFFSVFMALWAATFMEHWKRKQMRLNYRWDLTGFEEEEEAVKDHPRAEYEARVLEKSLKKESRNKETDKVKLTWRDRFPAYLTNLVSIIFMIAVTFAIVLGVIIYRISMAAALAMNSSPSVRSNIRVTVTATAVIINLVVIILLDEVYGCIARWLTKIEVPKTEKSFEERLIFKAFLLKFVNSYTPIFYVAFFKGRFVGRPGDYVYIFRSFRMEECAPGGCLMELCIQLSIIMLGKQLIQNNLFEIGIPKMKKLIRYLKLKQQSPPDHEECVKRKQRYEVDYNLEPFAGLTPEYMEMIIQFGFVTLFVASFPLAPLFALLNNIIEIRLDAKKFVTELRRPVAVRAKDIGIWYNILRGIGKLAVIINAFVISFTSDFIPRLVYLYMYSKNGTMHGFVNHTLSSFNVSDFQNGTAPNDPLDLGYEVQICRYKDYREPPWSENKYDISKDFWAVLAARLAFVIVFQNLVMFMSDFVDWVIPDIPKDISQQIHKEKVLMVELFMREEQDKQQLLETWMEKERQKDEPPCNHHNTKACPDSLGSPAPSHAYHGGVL
Experiment: Automated patch clamping (QPatch) assay to measure TMEM16A activity in whole-cell
Assay type: cell-based
Details: for EC50: CHO cells expressing human TMEM16A (abc), whole-cell automated patch clamp, Hill fit, read-out: TMEM16A QPATCH assay EC50 V3 EC50; for Emax: CHO, read-out: TMEM16A QPATCH assay EC50 V3 Assay Window (% TMEM16A max activation); for Emax / TMEM16A QPATCH assay EC50 V3 Assay Window (% TMEM16A max activation): maximum current at highest dose relative to reference potentiator at maximal concentration (upper limit) and vehicle (lower limit)
Method: Automated Patch Clamping Assay to Measure TMEM16A Activity in Whole-Cell
Chinese hamster ovary cells (CHO) cells expressing abc isoform of human TMEM16A channel (Ref) were grown in vented cell-culture flasks (Corning) containing cell culture medium (1×F-12 Ham, 10% FBS, 1% Penicillin-streptomycin, 5 μg/mL Blasticidin S HCl, 400 μg/mL Zeocin), maintained at 37° C. in an incubator with 5% C02, 95% 02 and 100% humidity. The cells were passaged every 2-3 days at 80-90% confluence by aspirating the cell culture medium, washing twice with 10 mL D-PBS then incubating with 4 mL Trypsin-EDTA for no longer than 5 minutes. Trypsin was neutralized with the addition of 32 mL growth medium to the cell suspension, the cells were counted using a viable-cell counter (Vi-CELL; Beckmann-Coulter) and new flasks were seeded at a cell density of 0.01, 0.02, or 0.05×10^6 cells per cm2 for 3, 2, or 1 day(s) growth, respectively. Cell suspension was diluted in the new 175 cm2 flask with 50 mL of growth medium. Doxycycline was used to induce the expression of TMEM16A channel protein and was added directly to the culture flask 18-24 hours in advance of assay at a final concentration of 1 μg/mL. Induced cells were washed with D-PBS and detached from their culture flasks by adding 10 mL of Detachin and incubating for 10 minutes. Once detached, 5 mL of QPatch assay medium (1×CHO-S-SFM II (Sigma), 25 mM HEPES) was added and the resultant cell suspension counted using the Vi-CELL viable cell counter. The optimal cell density for this QPatch assay is 2-5×1 06 cells/mL; re-adjusted as necessary with QPatch assay medium.
The ion channel activity of TMEM16A (abc) expressed in CHO cells was assed using an automated patch clamp system (Qpatch, Sophion). These systems use planar patch-clamp technology to enable high-resistance, continuous whole-cell recordings from multiple cells in parallel, whilst maintaining each individual cell as an isolated experiment. First, each well was primed with intracellular and extracellular solutions described below. Cells were spun down, washed and then resuspended using extracellular solution. Intracellular solution: 130 mM N-methyl-D-glucamine, 10 mM EGTA, 20 mM CaCl2, 1 mM MgCl2, 10 mM HEPES 10, 10 mM BAPTA, 99 mM Sucrose, 2 mM Mg-ATP, pH 7.3, 320 mOsm Extracellular solution: 130 mM N-methyl-D-glucamine, 10 mM EGTA, 20 mM CaCl2, 1 mM MgCl2, 10 mM HEPES 10, 10 mM BAPTA, 99 mM Sucrose, 2 mM Mg-ATP, pH 7.3, 320 mOsm. Resuspended cells were then added to each well and suction was applied from the intracellular side in order to position a cell on the chip aperture, form a high resistance (GO) seal and achieve a whole-cell recording configuration. Following successful whole cell access, cell membranes were maintained at a voltage of −70 mV until the voltage protocol is applied. From this voltage, membranes were depolarized to +70 mV for 1500 ms, and then hyperpolarized to […] before being depolarized again from −90 to +70 mV in a continuous ramp waveform. At the end of the ramp, the membrane voltage is stepped back to −70 mV until the next waveform was applied. Compounds were dissolved at 10 mM in 100% DMSO and then diluted into extracellular solution (0.3% DMSO final) to the desired final concentration. The assay lower and upper limit were defined as follow, average amplitude (nA) of the last 3 sweeps in the vehicle addition of each cell was considered the basal current (lower limit); the average maximum current response in 3 cells for a reference potentiator at maximal concentration (upper limit). Current values for each compound concentration were then plotted against […]. EC50 curves are fitted to concentration-response data using curve-fitting functions (Hill fit) within the QPatch software. Curve fitting is constrained between the lowest concentration (vehicle-only addition) and the highest current value measured within the concentration range. […]

Compound	EC50	Emax [%]	TMEM16A QPATCH assay EC50 V3 Assay Window (% TMEM16A max activation) [%]
CCOC(=O)[C@@H](NC(=O)c1cnc(-c2cccc(-c3cc(C(=O)NC(CC)CC)n[nH]3)c2)o1)C(C)C [Example 1.1, (S)-Ethyl 3-Methyl-2-(2-(3-(3-(Pentan-3-Ylcarbamoyl)-1 H-Pyrazol-5-Yl)Phenyl)Oxazole-5-Carboxamido)Butanoate]	20 nM and 10 nM	90	100
CCC(CC)NC(=O)c1cc(-c2cccc(-c3ncc(C(=O)N[C@@H](CC(C)C)C(=O)OC)o3)c2)[nH]n1 [Example 1.26, (S)-Methyl 4-Methyl-2-(2-(3-(3-(Pentan-3-Ylcarbamoyl)-1H-Pyrazol-5-yl)Phenyl)Oxazole-5-Carboxamido)Pentanoate]	640 nM	91	
CCC(CC)NC(=O)c1cc(-c2cccc(-c3ncc(C(=O)N[C@@H](C)C4CC4)o3)c2)[nH]n1 [Example 1.6, (S)-N-(1-Cyclopropylethyl)-2-(3-(3-(Pentan-3-Ylcarbamoyl)-1H-Pyrazol-5-Yl)Phenyl)Oxazole-5-Carboxamide]	130 nM	61	
CCC(CC)NC(=O)c1cnc(-c2cccc(-c3cc(C(=O)NC(C4CC4)C4CCCO4)n[nH]3)c2)o1 (single isomer, unassigned) [Example 3.4 (iii), 2-(3-(3-((Cyclopropyl(Tetrahydrofuran-2-Yl)Methyl)Carbamoyl)-1H-Pyrazol-5-Yl)Phenyl)-N-(Pentan-3-Yl)Oxazole-5-Carboxamide]	550 nM		73
CCC(CC)NC(=O)c1cc(-c2cccc(-c3ncc(C(=O)N[C@@H](CC(C)C)C(=O)NCC(=O)OC(C)(C)C)o3)c2)[nH]n1 [Example 1.16, (S)-Tert-Butyl 2-(4-Methyl-2-(2-(3-(3-(Pentan-3-Ylcarbamoyl)-1 H-Pyrazol-5-yl)Phenyl)Oxazole-5-Carboxamido)Pentanamido)Acetate]	830 nM	100	
CCC(CC)NC(=O)c1cc(-c2cccc(-c3ncc(C(=O)N[C@H](C(=O)OC)c4ccccc4)o3)c2)[nH]n1 [Example 1.15, (S)-Methyl 2-(2-(3-(3-(Pentan-3-Ylcarbamoyl)-1H-Pyrazol-5-yl)Phenyl)Oxazole-5-Carboxamido)-2-Phenylacetate]	410 nM	100	

The remaining lines, values ahead:

EC50	Emax [%]	TMEM16A QPATCH assay EC50 V3 Assay Window (% TMEM16A max activation) [%]	Compound
30 nM	95		CCOC(=O)[C@@H](NC(=O)c1cc(-c2cccc(-c3ncc(C(=O)NC(CC)CC)o3)c2)[nH]n1)C(C)C [Example 3.52, (S)-Ethyl 3-Methyl-2-(5-(3-(5-(Pentan-3-Ylcarbamoyl)Oxazol-2-Yl)Phenyl)-1 H-Pyrazole-3-Carboxamido)Butanoate]
40 nM	110		CCOC(=O)[C@@H](NC(=O)c1cc(-c2cccc(-c3ncc(C(=O)NC(CC)CC)o3)c2)nn1CCO)C(C)C [Example 5.0, (S)-ethyl 2-(1-(2-hydroxyethyl)-3-(3-(5-(pentan-3-ylcarbamoyl)oxazol-2-yl)phenyl)-1 H-pyrazole-5-carboxamido)-3-methylbutanoate]
450 nM	119		C[C@H](NC(=O)c1cc(-c2cccc(-c3ncc(C(=O)N[C@H](C)C4CC4)o3)c2)nn1CC(O)C(F)(F)F)C1CC1 (stereo partly drawn) [Example 8.2, N-((R)-1-Cyclopropylethyl)-2-(3-(5-(((S)-1-Cyclopropylethyl)Carbamoyl)-1-(3,3,3-Trifluoro-2-Hydroxypropyl)-1H-Pyrazol-3-Yl)Phenyl)Oxazole-5-Carboxamide]
120 nM	220		COC(=O)[C@@H](NC(=O)c1cnc(-c2cccc(-c3cc(C(=O)NC(C4CC4)C4CC4)n(CC(O)C(F)(F)F)n3)c2)o1)C(C)C (stereo partly drawn) [Example 6.1, (2S)-Methyl 2-(2-(3-(5-((Dicyclopropylmethyl)Carbamoyl)-1-(3,3,3-Trifluoro-2-Hydroxypropyl)-1H-Pyrazol-3-Yl)Phenyl)Oxazole-5-Carboxamido)-3-Methylbutanoate]
140 nM	80		CCOC(=O)[C@H](Cc1ccccc1)NC(=O)c1cc(-c2cccc(-c3ncc(C(=O)NC(CC)CC)o3)c2)[nH]n1 [Example 3.66, (S)-Ethyl 2-(5-(3-(5-(Pentan-3-Ylcarbamoylyl-Carbamoyl)Oxazol-2-Yl)Phenyl)-1H-Pyrazole-3-Carboxamido)-3-Phenylpropanoate Trifluoroacetate]
150 nM	72		CCC(CC)NC(=O)c1cnc(-c2cccc(-c3cc(C(=O)N[C@@H](C)C(=O)OCc4ccccc4)n[nH]3)c2)o1 [Example 3.64, (S)-Benzyl 2-(5-(3-(5-(Pentan-3-Ylcarbamoyl)Oxazol-2-Yl)Phenyl)-1H-Pyrazole-3-Carboxamido)Propanoate Trifluoroacetate]
350 nM	70		CCC(CC)NC(=O)c1cnc(-c2cccc(-c3cc(C(=O)N[C@@H](Cc4ccccc4)C(=O)OC)n[nH]3)c2)o1 [Example 3.50, (S)-Methyl 2-(5-(3-(5-(Pentan-3-Ylcarbamoyl)Oxazol-2-Yl)Phenyl)-1H-Pyrazole-3-Carboxamido)-3-Phenylpropanoate]
330 nM	106		CCC(CC)NC(=O)c1cc(-c2cccc(-c3ncc(C(=O)N[C@@H](C)C4CC4)o3)c2)nn1CCO [Example 4.0, (S)-N-(1-Cyclopropylethyl)-2-(3-(1-(2-Hydroxyethyl)-5-(Pentan-3-Ylcarbamoyl)-1 H-Pyrazol-3-Yl)Phenyl)Oxazole-5-Carboxamide]
220 nM	77		CCC(CC)NC(=O)c1cnc(-c2cccc(-c3cc(C(=O)NCc4c(F)cccc4F)n[nH]3)c2)o1 [Example 3.34, 2-(3-(3-((2,6-Difluorobenzyl)Carbamoyl)-1 H-Pyrazol-5-Yl)Phenyl)-N-(Pentan-3-Yl)Oxazole-5-Carboxamide]
